# According to US10081609B2, “Compounds for inducing proliferation and differentiation of cells, and methods of use thereof” (The Broad Institute, Inc., priority 2013, dated 2018):
# Read-outs that look alike come from different tables or passages of the source.
# Experiments:
# human hepatocytes = assay: CYP450 induction control in human hepatocytes; format: cell-based; details: 250 μM
# Experimental: To confirm the staining results, secreted levels of albumin and AFP via ELISA, and CYP450 activities through isoenzyme-specific probes that are either fluorescent or luminescent were measured. ELISA results verified both an increase in albumin secretion and a decrease in AFP secretion by treated iHeps (FIG. 4D bottom). CYP3A4 activity increased by 16 and 45 times upon treatment with FH1 and FPH2, respectively. […] Induction was considered as a possible explanation for these elevations in CYP450 activity. However, this was unlikely based on the following experiments. […] Since a period of at least 48 hrs separated compound treatment and the measurement of CYP450 activity, the iHeps were expected to have recovered from any general elevations in CYP450 activity.
# [1] = test system: human primary hepatocytes; assay: Expansion of compound-treated human primary hepatocytes (cell counts, Ki67 staining); format: cell-based; details: for proliferation of hepatocytes: FIG. 11A
# Experimental: The metabolic phenotype of the treated hepatocytes was assessed for canalicular transport. […] Gene expression profiling confirmed that there was no significant differences between FPH-treated and untreated hepatocytes (FIG. 11D).
# The ability of compounds 201-212, 215, 217 and 244-258 to expand human primary hepatocytes in vitro was also tested.
# Protein binding - Human = format: in vitro ADME
# Experimental: (§1) Selected compounds of the invention were evaluated for physico-chemical properties, including solubility, microsomal stability, protein binding and plasma stability (Table 2).
# (§2) Selected compounds of the invention were evaluated for physico-chemical properties, including solubility, microsomal stability, protein binding and plasma stability (Table 3).
# [2] = Solubility in PBS with 1% DMSO; format: physicochemical; details: aqueous buffer, kinetic from dmso stock
# Experimental: as §1, §2
# iHeps [3] = assay: Cytochrome P450 activity in treated iHeps; format: cell-based; details: iHeps treated for 9 days
# Excerpt: iPS Cells were differentiated into iHeps, treated with selected compounds of the invention for 9 days, then assayed for CYP functions. The general CYP activity of the iHeps treated with compounds of the invention were elevated (FIG. 20A).
# [4] = test system: human iPS-derived hepatocyte-like cells (iHeps); assay: In vitro maturation of iHeps: ELISA of albumin and AFP; format: cell-based; details: iHeps treated for 9 days
# Experimental: The in vitro maturation effects of selected compounds of the invention on human iPS-derived hepatocyte-like cells (iHeps) were evaluated. Human iPS cells were differentiated into iHeps and treated with selected compounds of the invention for 9 days. Maturity of treated iHeps was evaluated through ELISA quantification of mature (albumin) and immature (AFP) markers. Results are illustrated in FIG. 19.
# Plasma stability - Human = format: in vitro ADME
# Experimental: as §1, §2
# [5] = Microsomal stability - Human; format: in vitro ADME; details: for Microsomal stability No NADPH: non-enzymatic microsomal mechanisms only; for Microsomal stability Average: enzymatic and non-enzymatic microsomal mechanisms
# Experimental: as §1, §2
# iHeps [6] = assay: Differentiation and maturation of iHeps (albumin/AFP ELISA, staining, CYP3A4 activity); format: cell-based, human
# Experimental: (§3) Undifferentiated iPS cells were cultured on Matrigel, supported by primary mouse embryonic fibroblasts. Once confluent, iPS cells were transitioned to differentiation media, with sequential addition of growth factors (Activin A, BMP-4, bFGF, HGF, and OSM) to guide differentiation, first into endoderm, then into hepatic progenitor cells and finally into iHeps. Compound treatment started on day 21 post initiation of differentiation and acted over a period of 9 days.
# Consistent with the literature, untreated cultures had islands that double stain for albumin and the fetal marker AFP, with very little presence of the mature marker […].
# The ability of compounds 201-212, 217 and 244-258 to affect the differentiation of iHeps was also tested.
# [7] = test system: transgenic lfabp:GFP zebrafish; assay: Liver development in transgenic lfabp:GFP zebrafish embryos; format: in vivo; details: exposure 24 to 72 hrs post fertilization
# Excerpt: The effects of FH1 and PH1 on liver development were examined in transgenic lfabp:GFP zebrafish, in which GFP expression is restricted to the liver. Zebrafish embryos were allowed to develop normally for 24 hrs post fertilization and then exposed to either FH1 or PH1 until 72 hrs post fertilization (FIG. 8A). Livers were visualized by whole-mount fluorescence imaging (FIG. 8B) and lfabp in situ hybridization (FIG. 8C).
# [8] = test system: human primary hepatocytes; assay: High-throughput liver platform, primary screening: secreted albumin by competitive ELISA; format: cell-based
# Excerpt: In order to evaluate the phenotype of treated cells, a secondary readout was included to quantify hepatocyte functions via competitive ELISA. This biochemical assay measured the level of secreted albumin as a marker for protein synthesis functions of the cultured hepatocytes (FIG. 1A bottom).
# FIG. 1B top summarizes the workflow of the screen. Primary screening was done on human primary hepatocytes, preconditioned for seven days by non-parenchymal cells in the screening platform. Upon stabilization in vitro, cultures were treated with the chemical library for 48 hours. All compounds were tested in duplicates, at a single concentration of 15 μM. This single concentration was selected via a pilot screen of ˜2,000 small molecules. All 12,480 small molecules were initially tested on a single donor of cryopreserved hepatocytes (donor a) in order to eliminate noise from donor-to-donor variability. Following compound treatment, media supernatants were collected for functional analyses via ELISA and cultures were fixed in 4% paraformaldehyde for proliferation analyses via imaging.
# [9] = test system: lfabp:GFP zebrafish embryos; assay: Therapeutic window after a non-fatal dose of APAP in zebrafish embryos (liver size); format: in vivo; details: 5 mM APAP for 24 hrs before 24 hour treatment
# Experimental: The current clinical treatment for APAP toxicity is the administration of NAC, which has a limited window of efficacy. To examine the therapeutic window of FH1 and PH1 efficacy, lfabp:GFP zebrafish embryos were allowed to develop normally for 48 hrs post fertilization, and then exposed to a non-fatal dose of 5 mM APAP for 24 hrs before initiation of treatment with FH1 or PH1 for an additional 24 hour period (FIG. 10A).
# [10] = test system: iPS-derived endothelial cells; assay: Differentiation of iPS-derived endothelial cells (nitric oxide); format: cell-based
# Experimental: Cells were assayed for nitric oxide (NO), a mature marker for endothelial cells. CB=FPH2, M=FH1, E=PH1, while Null and DMSO are control runs with no additive and vehicle only, respectively.
# iHeps [11] = assay: Gene expression profiles of treated iHeps (Luminex); format: cell-based, human
# Experimental: Cells were lysed using RLT buffer (Qiagen) or Trizol (Invitrogen) and purified using the Mini-RNeasy kit (Qiagen). Gene expression was determined using Luminex analysis, as previously described. Briefly, total RNA was immobilized on a Qiagen turbo capture 384-well plate, and reverse-transcribed using oligodT priming A biotinylated FlexMap tag sequence unique to each gene of interest and a phosphorylated downstream probe were then added to resulting cDNAs to generate biotinylated FlexMap-tagged amplicons. Universal PCR was then performed for 35 cycles using a biotinylated T7 forward primer and T3 reverse primer in buffer with dNTPs and Taq polymerase. FlexMap microsphere beads conjugated with antitag oligonucleotides were then added and allowed to hybridize. Amplicons were captured by streptavidin-phyoerythrin, and 100 events per bead were analyzed for internal bead color and phyoerythrin reporter fluorescence on a Luminex FlexMap 3D analyzer. Data for replicate loadings, expressed in mean fluorescent intensity of at least 100 beads per sample, were scaled to the human transferrin gene and row-normalized for heat map representation using GeneE open software (Broad Institute).
# as §3, with “The ability of compounds of the invention to affect the differentiation and maturation of iHeps was tested. Undifferentiated” for “Undifferentiated”, “days. FH1 and FPH2 were used to treat iHeps. FH1 doubled albumin secretion during primary screening (FIG. 4A left) in a dose-responsive manner (FIG. 4A right).” for “days.”
# Euclidian clustering analyses groups untreated cells with fetal hepatocytes and treated cells with mature hepatocytes (FIG. 4C left). Of particular interest are ABC transporters, CYP3A4 and GSTP1 expression levels. ABC transporters are known to mature after birth. ABCB11, also known as bile-salt export pump (BSEP), increased ˜3 fold and ˜4 fold in expression levels with FPH2 and FH1 treatment, respectively, compared to untreated iHeps. In contrast, GSTP1 expression, whose levels decrease with maturity, remained low upon FPH2 and FH1 treatment compared to untreated iHeps (FIG. 4C right).
# [12] = test system: lfabp:GFP zebrafish embryos; assay: Survival of zebrafish embryos after a fatal dose of APAP; format: in vivo; details: 10 mM APAP concurrently with compound, from 72 hrs post fertilization
# Experimental: The effect of FH1 on zebrafish survival following APAP-induced toxicity was examined. lfabp:GFP zebrafish embryos were allowed to develop normally for 72 hrs post fertilization and then exposed to a fatal dose of 10 mM APAP concurrently with FH1 (FIG. 9A).
# iHeps [13] = assay: Differentiation of human iPS-derived hepatocytes (iHeps): morphology and immunofluorescent staining; format: cell-based
# Experimental: as §3, with “The ability of compounds of the invention to affect the differentiation and maturation of iHeps was tested. Undifferentiated” for “Undifferentiated”, “days. FH1 and FPH2 were used to treat iHeps. FH1 doubled albumin secretion during primary screening (FIG. 4A left) in a dose-responsive manner (FIG. 4A right).” for “days.”
# To examine the effects of FH1 and FPH2 at the protein level, AFP, albumin and CYP3A4 levels weew visualized via immunofluorescent staining. […] This is in agreement with primary screening results as well as earlier morphological findings. Untreated cultures had islands that double stain for albumin and the fetal marker AFP, with very little presence of the mature marker CYP3A4.
# iHeps [14] = assay: CYP450 activities of treated iHeps through isoenzyme-specific probes; format: cell-based, human
# Experimental: Culture media were collected and frozen at −20° C. until analysis. Albumin content was measured through sandwich ELISA assays (MP Biomedicals, Fitzgerald, Bethyl Laboratories) using horseradish peroxidase detection and 3,3′,5,5′-tetramethylbenzidine (TMB, Fitzgerald Industries) as a substrate. Urea concentration was determined colorimetrically using diacetylmonoxime with acid and heat (Stanbio Labs). To quantify CYP450 activity, at 48 hours after small molecule exposure, cultures were incubated with substrates (coumarin from Sigma for CYP2A6, luciferin-IPA from Promega for CYP3A4) for 4 hours at 37° C. Incubation medium was collected and metabolite concentration quantified via luminescence, or fluorescence after hydrolization of potential metabolite conjugates by β-glucuronidase/arylsulfatase (Roche, Ind.).
# The ability of compounds of the invention to affect the differentiation and maturation of iHeps was tested. Undifferentiated iPS cells were cultured on Matrigel, supported by primary mouse embryonic fibroblasts. […]
# To confirm the staining results, secreted levels of albumin and AFP via ELISA, and CYP450 activities through isoenzyme-specific probes that are either fluorescent or luminescent were measured. […]
# [15] = test system: lfabp:GFP zebrafish embryos; details: clinical treatment for APAP toxicity; cited from earlier work
SMILES,Protein binding Average (Protein binding - Human) [% bound],Protein binding Rep1 (Protein binding - Human) [% bound],Protein binding Rep2 (Protein binding - Human) [% bound],solubility ([2]; read-out: Solubility Average) [µM],solubility ([2]; read-out: Solubility Rep1) [µM],solubility ([2]; read-out: Solubility Rep2) [µM],solubility ([2]; read-out: Solubility Rep3) [µM],"experimental range of effective concentrations, CYP2A6 (iHeps [3]) [µM]","experimental range of effective concentrations, CYP3A4 (iHeps [3]) [µM]","experimental range of effective concentrations, CYP3A7 (iHeps [3]) [µM]","experimental range of effective concentrations, general CYP activity (general BFC) (iHeps [3]) [µM]",Plasma stability Average (Plasma stability - Human) [% remaining],Microsomal stability Rep1 [5] [% remaining],Microsomal stability Rep2 [5] [% remaining],Microsomal stability No NADPH [5] [% remaining],Microsomal stability Average [5] [% remaining],proliferation of hepatocytes [1],"experimental range of effective concentrations, albumin (mature marker) [4] [µM]",other results
"O=c1cc(-c2ccccc2)oc2ccc3ccccc3c12 [BNF, β-naphthoflavone]",,,,,,,,,,,,,,,,,,,CYP450 activity (human hepatocytes): elevated
"C[C@H](CO)N1C[C@H](C)[C@H](CN(C)C(=O)Nc2ccc(F)cc2)Oc2ncc(C#Cc3ccc(F)cc3)cc2C1=O [Compound 107, 3-(4-fluorophenyl)-1-(((2R,3S)-8-((4-fluorophenyl)ethynyl)-5-((R)-1-hydroxypropan-2-yl)-3-methyl-6-oxo-3,4,5,6-tetrahydro-2H-pyrido[2,3-b][1,5]oxazocin-2-yl)methyl)-1-methylurea]",99.5,99.4,99.5,41,33,47,41,10 to 26.7,6.7 to 20,10 to 13.3,13.3,87.1,52.4,59.3,94.4,55.8,induced proliferation,5 to 20,Ki67 staining co-localized with Hoechst and human albumin stains [1]: increased
"C[C@H]1CN([C@@H](C)CO)C(=O)CCCn2cc(nn2)CO[C@H]1CN(C)C(=O)C1CC1 [Compound 108, N-(((4R,5S,Z)-7-((S)-1-hydroxypropan-2-yl)-5-methyl-8-oxo-11H-3-oxa-7-aza-1(4,1)-triazolacycloundecaphane-4-yl)methyl)-N-methylcyclopropanecarboxamide]",12.0,11.8,12.1,> 100,> 100,> 100,> 100,10 to 20,6.7 to 13.3,6.7 to 10,6.7 to 13.3,104.2,99.4,95.3,102.3,97.4,induced proliferation,5 to 13.3,"hepatocyte phenotype of treated iHeps (iHeps [6]): more mature hepatocyte phenotypes; AFP secretion (ELISA) (iHeps [6]; treatment from day 21, 9 days): decreased; albumin secretion (ELISA) (iHeps [6]; treatment from day 21, 9 days): increased"
"CC(=O)Nc1ccc(Cc2ccc(NC(C)=O)cc2)cc1 [FH1, N,N′-(methylenebis(4,1-phenylene))diacetamide]",,,,,,,,,,,,,,,,,,,"liver size compared to DMSO-treated controls [7]: increased; albumin secretion during primary screening [8]: doubled; embryonic liver size / liver mass after APAP compared to controls [9]: mitigated APAP-induced loss of liver mass; differentiation of iPS-derived endothelial cells (nitric oxide) [10]: induce differentiation; ABCB11 (BSEP) expression level increase compared to untreated iHeps (iHeps [11]): ~4 fold; GSTP1 expression compared to untreated iHeps (iHeps [11]): remained low; survival of embryos [12]: 71%; staining of treated islands for albumin, CYP3A4 and AFP (iHeps [13]; immunofluorescent staining): double stained strongly for albumin and CYP3A4, with very minimal presence of AFP; albumin staining (immunofluorescent) (iHeps [13]; treated iHeps): dramatic increases; hepatocyte phenotype of treated iHeps (iHeps [13]; treatment from day 21, 9 days): more mature hepatocyte phenotypes; CYP3A4 activity increase (iHeps [14]): 16 times"
CC(=O)N[C@@H](CS)C(=O)O [NAC],,,,,,,,,,,,,,,,,,,typical therapeutic window [15]: ~8 h
